Consider 31 molecules from publication PMC7619385 (ACS infectious diseases, 2025).

The assay concerns the target T1, LmxCLK1 (Leishmania mexicana, UniProt E9AMP2).
T1 sequence (E9AMP2 1-422): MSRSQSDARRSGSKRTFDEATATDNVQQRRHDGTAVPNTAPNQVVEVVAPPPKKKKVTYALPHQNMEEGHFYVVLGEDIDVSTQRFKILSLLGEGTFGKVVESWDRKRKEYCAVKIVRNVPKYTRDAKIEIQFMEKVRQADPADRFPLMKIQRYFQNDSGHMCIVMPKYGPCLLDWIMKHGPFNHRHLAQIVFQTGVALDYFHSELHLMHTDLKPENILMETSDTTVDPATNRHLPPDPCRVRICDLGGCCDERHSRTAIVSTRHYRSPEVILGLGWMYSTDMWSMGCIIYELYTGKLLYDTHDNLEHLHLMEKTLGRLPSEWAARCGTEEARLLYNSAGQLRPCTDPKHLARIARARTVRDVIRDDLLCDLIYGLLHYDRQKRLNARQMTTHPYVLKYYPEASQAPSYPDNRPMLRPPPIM
In words: biochemical. The class given is binding.

Where [1] appears, read: DSF, 10 µM compound, 2 µM LmxCLK1, Run 1, read-out: ΔTm Run 1.
The mark [2] stands for this setting: DSF, 10 µM compound, 2 µM LmxCLK1, Run 2, read-out: ΔTm Run 2.
The mark [3] stands for this setting: DSF, 10 µM compound, 2 µM LmxCLK1, mean of two runs, read-out: ΔTm Average.
Setting [4] is: DSF, 10 µM compound, 2 µM LmxCLK1, Run 1.
Setting [5] is: DSF, 10 µM compound, 2 µM LmxCLK1, Run 2.
Setting [6] is: DSF, 10 µM compound, 2 µM LmxCLK1, mean of two runs.

SMILES strings stand for the structures. Like-named read-outs stand apart in the source and are kept apart here.

What is called ΔTm is the shift of the melting midpoint relative to a reference. On to `O=C(O)c1ccc(Nc2ncc3c(n2)-c2ccc(Cl)cc2C(c2c(F)cccc2F)=NC3)cc1` [MLN8054], for which the shift in melting temperature (ΔTm) at 10 µM reads like this: under setting [1], 0.3 °C; under setting [2], 0.1 °C; under setting [3], 0.2 °C.

With `Cc1ccc(NC(=O)c2ccc(CN3CCN(C)CC3)cc2)cc1Nc1nc(-c2cccnc2)cs1` [Masitinib (AB1010)], the “ΔTm Run 1” value under setting [4] was 0.3 °C. Besides, under setting [5], the “ΔTm Run 2” value is 0.2 °C. The “ΔTm Average” value under setting [6] was 0.2 °C.

Turning to `CNC(=O)c1nn(C)c2c1C(C)(C)Cc1cnc(Nc3ccc(N4CCN(C)CC4)cc3)nc1-2` [Milciclib (PHA-848125)], under setting [4], the “ΔTm Run 1” value is 0.1 °C. For the same molecule, the “ΔTm Run 2” value under setting [5] is -0.2 °C. Also, under setting [6], the “ΔTm Average” value turned out to be 0.0 °C.

Consider `CC1(C)CNc2cc(NC(=O)c3cccnc3NCc3ccncc3)ccc21.O=P(O)(O)O.O=P(O)(O)O` [Motesanib Diphosphate (AMG-706)], for which, under setting [4], the “ΔTm Run 1” value was determined as 0.3 °C. Under setting [5], the “ΔTm Run 2” value amounted to 0.1 °C. The “ΔTm Average” value under setting [6] is 0.2 °C.

For `FC(F)(F)c1ccc(/C=C/c2nc(COc3ccc(CCCCn4ccnn4)cc3)co2)cc1` [Mubritinib (TAK 165)], the ΔTm Average turned out to be 0.2 °C, the ΔTm Run 1 is 0.4 °C and the ΔTm Run 2 stood at 0 °C.

As to `CN1CCN(c2ccc(OC(F)(F)F)c(Nc3ncc4c(n3)-c3c(c(C(N)=O)nn3CCO)CC4)c2)CC1` [NMS-P937 (NMS1286937)], the “ΔTm Run 1” value under setting [4] was determined as 0.0 °C. The “ΔTm Run 2” value under setting [5] worked out at 0.0 °C. Further, under setting [6], the “ΔTm Average” value was found to be 0.0 °C.

Regarding `CCN(CC)CCCC(C)Nc1nc(C)cc(Nc2ccc3nc(C)cc(N)c3c2)n1` (stereo not drawn) [NSC 23766], the “ΔTm Run 1” value under setting [4] stood at 0.0 °C. The “ΔTm Run 2” value under setting [5] was -0.1 °C. In addition, the “ΔTm Average” value under setting [6] was 0.0 °C.

Consider `Nc1nc(N)c(N=O)c(OCC2CCCCC2)n1` [NU6027], for which the ΔTm at 10 µM (read-out: ΔTm Average) was determined as 0 °C, the ΔTm at 10 µM (read-out: ΔTm Run 1) was determined as 0.1 °C and the ΔTm at 10 µM (read-out: ΔTm Run 2) was -0.2 °C.

Consider `O=c1cc(N2CCOCC2)oc2c(-c3cccc4c3sc3ccccc34)cccc12` [NU7441 (KU-57788)], for which the “ΔTm Run 1” value under setting [4] was found to be 0.0 °C. Moreover, the “ΔTm Run 2” value under setting [5] was -0.2 °C. Further, under setting [6], the “ΔTm Average” value was -0.1 °C.

For `Nc1ncnc2c1c(-c1cccc(OCc3ccccc3)c1)cn2C1CC(CN2CCCC2)C1` (stereo not drawn) [NVP-ADW742], under setting [4], the “ΔTm Run 1” value amounted to 0.0 °C. Also, the “ΔTm Run 2” value under setting [5] is -0.2 °C. In addition, the “ΔTm Average” value under setting [6] is -0.1 °C.

Regarding `Nc1ncnc2c1c(-c1cccc(OCc3ccccc3)c1)cn2[C@H]1C[C@@H](CN2CCC2)C1` [NVP-AEW541], the ΔTm at 10 µM is, setting by setting: under setting [1], 0.1 °C; under setting [2], -0.1 °C; under setting [3], 0 °C.

For the molecule `Cc1ccc(C(=O)Nc2cccc(C(F)(F)F)c2)cc1Nc1nc(-c2cccnc2)nc2c1cnn2C` [NVP-BHG712], the “ΔTm Run 1” value under setting [4] turned out to be 0.1 °C. Under setting [5], the “ΔTm Run 2” value was -0.3 °C. Further, the “ΔTm Average” value under setting [6] was -0.1 °C.

For the molecule `Cl.Cl.Fc1cc(-c2cccc3ncc(-c4cnn(C5CCNCC5)c4)nc23)cc(F)c1CN1CCOCC1` [NVP-BSK805 2HCl], the “ΔTm Run 1” value under setting [4] came out at 0.9 °C. Also, under setting [5], the “ΔTm Run 2” value was 0.7 °C. For the same molecule, the “ΔTm Average” value under setting [6] turned out to be 0.8 °C.

Consider `Cn1cc(-c2ccc3ncc(Cc4ccc5ncccc5c4)n3n2)cn1` [NVP-BVU972], for which the “ΔTm Run 1” value under setting [4] turned out to be 0.3 °C. Further, the “ΔTm Run 2” value under setting [5] turned out to be 0.0 °C. For the same molecule, under setting [6], the “ΔTm Average” value was determined as 0.2 °C.

With `Cc1cn(-c2cc(NC(=O)c3ccc(C)c(Nc4nccc(-c5cccnc5)n4)c3)cc(C(F)(F)F)c2)cn1` [Nilotinib (AMN-107)], the “ΔTm Run 1” value under setting [4] was found to be 0.0 °C. Besides, the “ΔTm Run 2” value under setting [5] was 0.0 °C. The “ΔTm Average” value under setting [6] amounted to 0.0 °C.

Regarding `C[C@]1(O)C[C@@H](c2nc(-c3ccc4ccc(-c5ccccc5)nc4c3)c3c(N)nccn32)C1` [OSI-906 (Linsitinib)], the “ΔTm Run 1” value under setting [4] was 0.0 °C. Moreover, the “ΔTm Run 2” value under setting [5] was -0.3 °C. For the same molecule, the “ΔTm Average” value under setting [6] was -0.2 °C.

Turning to `NCC(=O)Nc1ccc(-n2nc(C(F)(F)F)cc2-c2ccc3c(ccc4ccccc43)c2)cc1` [OSU-03012 (AR-12)], the “ΔTm Run 1” value under setting [4] is -0.1 °C. The “ΔTm Run 2” value under setting [5] worked out at 0.2 °C. For the same molecule, the “ΔTm Average” value under setting [6] was found to be 0.0 °C.

Take `CN1CCC(c2c(O)cc(O)c3c(=O)cc(-c4ccccc4Cl)oc23)C1CO` (stereo not drawn) [P276-00]: the ΔTm Average is 0.3 °C, the ΔTm Run 1 is 0.4 °C and the ΔTm Run 2 worked out at 0.3 °C.

For `C=CC(=O)Nc1ccc2ncnc(Nc3cccc(Br)c3)c2c1` [PD168393], the “ΔTm Run 1” value under setting [4] was 0.3 °C. Besides, the “ΔTm Run 2” value under setting [5] was -0.7 °C. Further, the “ΔTm Average” value under setting [6] was -0.2 °C.

On to `CCN(CC)CCCCNc1ncc2cc(-c3cc(OC)cc(OC)c3)c(NC(=O)NC(C)(C)C)nc2n1` [PD173074], for which the ΔTm at 10 µM by setting is: under setting [1], 0.1 °C; under setting [2], -0.1 °C; under setting [3], 0 °C.

With `CSc1cccc(Nc2ncc3cc(-c4c(Cl)cccc4Cl)c(=O)n(C)c3n2)c1` [PD173955], the “ΔTm Run 1” value under setting [4] is 0.0 °C. The “ΔTm Run 2” value under setting [5] is -0.3 °C. The “ΔTm Average” value under setting [6] was -0.1 °C.

`O=C(NOCC(O)CO)c1cc(Br)c(F)c(F)c1Nc1ccc(I)cc1F` (stereo not drawn) [PD318088]: the “ΔTm Run 1” value under setting [4] amounted to 0.4 °C. In addition, under setting [5], the “ΔTm Run 2” value came out at 0.1 °C. Further, under setting [6], the “ΔTm Average” value turned out to be 0.2 °C.

Consider `Cn1cc(-c2[nH]c3cc(NC(=O)[C@H](N)C4CCCCC4)cc4c3c2C=NNC4=O)cn1` [PF-477736], for which the thermal shift (ΔTm) at 10 µM under setting [1] came to 1.3 °C, the ΔTm at 10 µM under setting [2] is 1.2 °C and the ΔTm at 10 µM under setting [3] was 1.2 °C.

Regarding `CN(c1ncccc1CNc1nc(Nc2ccc3c(c2)CC(=O)N3)ncc1C(F)(F)F)S(C)(=O)=O` [PF-00562271], the “ΔTm Average” value is -0.1, the ΔTm Run 1 was found to be 0 °C and the “ΔTm Run 2” value is reported as -0.3.

`CN(c1ncccc1CNc1nc(Nc2ccc3c(c2)CC(=O)N3)ncc1C(F)(F)F)S(C)(=O)=O` [PF-562271]: the “ΔTm Run 1” value under setting [4] was determined as 0.3 °C. Further, under setting [5], the “ΔTm Run 2” value was -0.1 °C. Under setting [6], the “ΔTm Average” value was 0.1 °C.

As to `CS(=O)(=O)c1cccc(CNc2nc(Nc3ccc4c(c3)CCC(=O)N4)ncc2C(F)(F)F)c1` [PF-573228], under setting [4], the “ΔTm Run 1” value amounted to 0.1 °C. In addition, the “ΔTm Run 2” value under setting [5] was -0.3 °C. Further, under setting [6], the “ΔTm Average” value was -0.1 °C.

Consider `Cc1nc(Nc2[nH]nc3c2CN(C(=O)N[C@H](CN(C)C)c2ccccc2)C3(C)C)c2sccc2n1` [PF-3758309], for which the ΔTm at 10 µM stood at 0.7 °C under setting [1], 0.5 °C under setting [2] and 0.6 °C under setting [3].

`OCCn1cc(-c2cnc3nnn(Cc4ccc5ncccc5c4)c3n2)cn1` [PF-04217903]: the ΔTm Average came out at 0.2 °C, the ΔTm Run 1 is 0.1 °C and the ΔTm Run 2 worked out at 0.3 °C.

For `CCc1cncnc1N1CCN(Cc2nc3ccc(C(F)(F)F)cc3[nH]2)CC1` [PF-4708671], the “ΔTm Average” value is reported as -0.1, the ΔTm Run 1 is 0.1 °C and the “ΔTm Run 2” value is recorded as -0.2.

As to `CNC(=O)c1ccc(C)c(-n2c(C)cc(OCc3ccc(F)cc3F)c(Br)c2=O)c1` [PH-797804], the ΔTm at 10 µM under setting [1] was -0.1 °C, the ΔTm at 10 µM under setting [2] is -0.3 °C and the ΔTm at 10 µM under setting [3] was -0.2 °C.

In the case of `Cc1[nH]c(/C=C2\C(=O)Nc3ccc(S(=O)(=O)Cc4c(Cl)cccc4Cl)cc32)c(C)c1C(=O)N1CCC[C@@H]1CN1CCCC1` [PHA-665752], the ΔTm at 10 µM was 0.1 °C under setting [1], 0.1 °C under setting [2] and 0.1 °C under setting [3].
